Like-named read-outs stand apart in the source and are kept apart here.

For one assay, the target named is RORγ (Homo sapiens, UniProt P51449). As to the kind of experiment: RORγ Gal4 Reporter Gene Assay. It counts as cell-based. Put shortly: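 Cells at 5×10^5/well were transfected with RORγ fragments fused to the GAL4 DNA-binding domain (CMV promoter), a 5×GAL4-site firefly luciferase reporter and CMV-Renilla luciferase for normalization. About 4 h later serum-free MEM and compound were added (vehicle ≤0.1%). Cultures at 37 °C, 5% CO2; at least triplicates.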
(In general: In a reporter assay the amount or activity of a reporter protein is the signal.)

Assay [1] deals with RORγ ligand binding domain (LBD) (Homo sapiens (Human), UniProt P51449). The experiment in a line: TR-FRET Activity Assay (ligand sensing assay, LANCE). As to conditions: for pIC50 (FRET): TR-FRET, interaction of RORγ-LBD with coactivator peptide. On the technique in general: TR-FRET usually uses a lanthanide donor and a delayed reading to cut background.
Source text: The ligand-binding domain (LBD) of RORγ was expressed as fusion protein with GST in BL-21 (BL3) cells using the vector pDEST15. Cells were lysed by lysozyme-treatment and sonication, and the fusion proteins purified over glutathione sepharose (Pharmacia) according to the manufacturers instructions. For screening of compounds for their influence on the RORγ-peptide interaction, the LANCE technology (Perkin Elmer) was applied. This method relies on the binding dependent energy transfer from a donor to an acceptor fluorophor attached to the binding partner of interest. For ease of handling and reduction of background from compound fluorescence LANCE technology makes use of generic fluorophore labels and time resolved detection assays were done in a final volume of 25 μL in a 384 well plate, in a Tris-based buffer system (20 mM Tris-HCl pH 6.8; 60 mM KCl, 1 mM DTT; 5 mM MgCl2; 35 ng/μL BSA), containing 20-60 ng/well recombinantly expressed RORγ-LBD fused to GST, 200-600 nM N-terminally biotinylated peptide, 200 ng/well Streptavidin-xlAPC conjugate (Prozyme) and 6-10 ng/well Eu W1024-antiGST (Perkin Elmer). DMSO content of the samples was kept at 1%.
After generation of the Tris-based buffer system, the potentially RORγ modulating ligands were diluted. […] The LANCE signal was detected by a Perkin Elmer EnVision™ Multilabel Counter. […] Ligands that promote the complex formation induce a concentration-dependent increase in time-resolved fluorescent signal.
Y is the response. Y starts at Bottom and goes to Top with a sigmoidal shape.
This is identical to the “four parameter logistic equation”. The IC50 values are calculated using this equation.
Setting [2] is: firefly (FF) luciferase, 293T cells.
Where [3] appears, read: renilla normalised (RENnorm) luciferase, 293T cells.

RORγ, sequence (P51449 whole entry, looked up, the tested form may be a part): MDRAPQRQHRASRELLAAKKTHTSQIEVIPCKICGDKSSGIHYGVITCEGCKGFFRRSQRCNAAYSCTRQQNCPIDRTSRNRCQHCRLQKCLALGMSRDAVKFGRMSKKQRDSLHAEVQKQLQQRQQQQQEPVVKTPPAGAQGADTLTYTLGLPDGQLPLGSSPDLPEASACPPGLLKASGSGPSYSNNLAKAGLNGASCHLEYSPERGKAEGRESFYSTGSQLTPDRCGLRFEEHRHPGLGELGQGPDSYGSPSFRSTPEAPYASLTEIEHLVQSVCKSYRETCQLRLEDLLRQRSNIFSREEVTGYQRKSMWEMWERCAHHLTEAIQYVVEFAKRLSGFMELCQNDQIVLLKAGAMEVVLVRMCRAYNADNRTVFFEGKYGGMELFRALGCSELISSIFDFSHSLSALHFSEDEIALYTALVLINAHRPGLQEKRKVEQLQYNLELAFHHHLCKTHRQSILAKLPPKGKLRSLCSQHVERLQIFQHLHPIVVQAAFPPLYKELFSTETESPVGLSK
RORγ ligand binding domain (LBD), sequence (P51449 269-508): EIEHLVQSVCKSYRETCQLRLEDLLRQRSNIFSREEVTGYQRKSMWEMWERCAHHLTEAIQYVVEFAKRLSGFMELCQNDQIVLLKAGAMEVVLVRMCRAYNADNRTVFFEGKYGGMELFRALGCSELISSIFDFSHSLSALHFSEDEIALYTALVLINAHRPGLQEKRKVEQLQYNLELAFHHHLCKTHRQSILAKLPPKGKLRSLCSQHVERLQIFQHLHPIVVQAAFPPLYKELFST

Regarding `CC(C)(O)CNC(=O)c1nc(CC2CCC2)c(-c2ccc(S(=O)(=O)NC(C)(C)C)c(Cl)c2Cl)s1` [Example 21, 5-(4-(N-(tert-butyl)sulfamoyl)-2,3-dichlorophenyl)-4-(cyclobutylmethyl)-N-(2-hydroxy-2-methylpropyl)thiazole-2-carboxamide], on RORγ, the “pIC50 (FF)” value is 7.0/8.1/8.2 and the “pIC50 (REN)” value is 7.0/8.1/8.2. Besides, the “pIC50 (FRET)” value in assay [1] is listed as 7.0/8.1/8.2.
Regarding `CC(C)(C)c1cc(-c2sc(C(=O)N[C@H]3C[C@H](C(=O)O)C3)[n+]([O-])c2CC2CCCCC2)cc(C(C)(C)C)n1` [Example 22, 2-(((trans)-3-Carboxycyclobutyl)carbamoyl)-4-(cyclohexylmethyl)-5-(2,6-di-tert-butylpyridin-4-yl)thiazole 3-oxide], the “pIC50 (FF)” value at RORγ (setting [2]) is given as 7.1. For the same compound, the “pIC50 (REN)” value against RORγ (setting [3]) is 7.1. This compound had an IC50 in assay [1] of 398 nM.
As for `CC(C)(C)NS(=O)(=O)c1ccc(-c2sc(C(=O)NC3CCC3)[n+]([O-])c2CC2CCCCC2)c2ccccc12` [Example 22/1], the “pIC50 (FF)” value on RORγ (setting [2]) came out at 7.5. For the same compound, the “pIC50 (REN)” value on RORγ (setting [3]) is reported as 7.5. For the same compound, in assay [1], the “pIC50 (FRET)” value worked out at 6.4.
Turning to `CC(C)(C)c1cc(-c2sc(C(=O)N[C@H]3C[C@H](C(=O)O)C3)nc2CC2CCCCC2)cc(C(C)(C)O)c1` [Example 23, (trans)-3-(5-(3-(tert-Butyl)-5-(2-hydroxypropan-2-yl)phenyl)-4-(cyclohexylmethyl)-thiazole-2-carboxamido)cyclobutanecarboxylic acid], the “pIC50 (FF)” value against RORγ (setting [2]) came out at 8.2. This compound also had an IC50 in assay [1] of 631 nM.
Turning to `CC(C)(C)c1cc(-c2sc(C(=O)N[C@H]3C[C@H](C(=O)O)C3)nc2CC2CCCCC2)cc(C(C)(C)F)c1` [Example 24, (trans)-3-(5-(3-(tert-Butyl)-5-(2-fluoropropan-2-yl)phenyl)-4-(cyclohexylmethyl)thiazole-2-carboxamido)cyclobutanecarboxylic acid], the “pIC50 (FF)” value against RORγ (setting [2]) worked out at 7.5. Further, the “pIC50 (REN)” value at RORγ (setting [3]) came to 7.5. Also, the IC50 in assay [1] was 316 nM.
Regarding `CC(C)(C)c1cc(-c2oc(C(N)=O)nc2CC2CCCCC2)cc(C(C)(C)C)c1` [Example 100, 4-(Cyclohexylmethyl)-5-(3,5-di-tert-butylphenyl)oxazole-2-carboxamide], on RORγ, the “pIC50 (FF)” value is 6.6/5.8/5.8 and the “pIC50 (REN)” value is 6.6/5.8/5.8. The “pIC50 (FRET)” value in assay [1] is reported as 6.6/5.8/5.8.
As for `CC(C)(C)NS(=O)(=O)c1ccc(-c2oc(C(=O)NC3CCOCC3)nc2CC2CCCCC2)cc1C(C)(C)C` [Example 100/1], on RORγ, the “pIC50 (FF)” value is listed as 5.9/6.3/6.3 and the “pIC50 (REN)” value is 5.9/6.3/6.3. Further, the “pIC50 (FRET)” value in assay [1] is on record as 5.9/6.3/6.3.
In the case of `CC(C)(C)c1cc(-c2nc(C(N)=O)oc2CC2CCCCC2)cc(C(C)(C)C)c1` [Example 101, 5-(Cyclohexylmethyl)-4-(3,5-di-tert-butylphenyl)oxazole-2-carboxamide], the IC50 at RORγ (firefly (FF) luciferase, 293T cells, read-out: pIC50 (FF) (converted)) was above 20000 nM; at RORγ (renilla normalised (RENnorm) luciferase, 293T cells, read-out: pIC50 (REN) (converted)), above 20000 nM. The “pIC50 (FRET)” value in assay [1] turned out to be 6.0.
For the compound `CC(C)(C)NS(=O)(=O)c1ccc(-c2oc(C(=O)NC34CCC(C(=O)NS(C)(=O)=O)(CC3)CC4)nc2CC2CCCCC2)c2ccccc12` [Example 102, 5-(4-(N-(tert-Butyl)sulfamoyl)naphthalen-1-yl)-4-(cyclohexylmethyl)-N-(4-((methylsulfonyl)carbamoyl)bicyclo[2.2.2]octan-1-yl)oxazole-2-carboxamide], on RORγ, the “pIC50 (FF)” value is 6.0/7.3/7.4 and the “pIC50 (REN)” value is recorded as 6.0/7.3/7.4. In assay [1], the “pIC50 (FRET)” value is recorded as 6.0/7.3/7.4.
For the compound `CC(C)(C)NS(=O)(=O)c1ccc(-c2oc(C(=O)N[C@H]3C[C@H](C(=O)NS(C)(=O)=O)C3)nc2CC2CCCCC2)c2ccccc12` [Example 102/1], at RORγ, the “pIC50 (FF)” value is 6.1/6.7/6.7 and the “pIC50 (REN)” value is given as 6.1/6.7/6.7. In assay [1], the “pIC50 (FRET)” value is given as 6.1/6.7/6.7.
On to `CC(C)(C)NS(=O)(=O)c1ccc(-c2nc(C(=O)NC3CCS(=O)(=O)CC3)oc2CC2CCCCC2)c2ccccc12` [Example 103, 4-(4-(N-(tert-Butyl)sulfamoyl)naphthalen-1-yl)-5-(cyclohexylmethyl)-N-(1,1-dioxidotetrahydro-2H-thiopyran-4-yl)oxazole-2-carboxamide], for which, at RORγ, the “pIC50 (FF)” value is listed as 6.3/7.2/7.3 and the “pIC50 (REN)” value is listed as 6.3/7.2/7.3. In addition, the “pIC50 (FRET)” value in assay [1] was 6.3/7.2/7.3.
In the case of `CC(C)(C)NS(=O)(=O)c1ccc(-c2nc(C(=O)NC34CCC(C(=O)O)(CC3)CC4)oc2CC2CCCCC2)c2ccccc12` [Example 103/1], on RORγ, the “pIC50 (FF)” value was 6.2/7.4/7.4 and the “pIC50 (REN)” value is given as 6.2/7.4/7.4. For the same compound, the “pIC50 (FRET)” value in assay [1] is reported as 6.2/7.4/7.4.
Regarding `CC(C)(C)NS(=O)(=O)c1ccc(-c2oc(C(=O)NC3CCS(=O)(=O)CC3)nc2CC2CCC2)c2ccccc12` [Example 104, 5-(4-(N-(tert-Butyl)sulfamoyl)naphthalen-1-yl)-4-(cyclobutylmethyl)-N-(1,1-dioxidotetrahydro-2H-thiopyran-4-yl)oxazole-2-carboxamide], on RORγ, the “pIC50 (FF)” value was 6.6/7.5/7.9 and the “pIC50 (REN)” value is reported as 6.6/7.5/7.9. Also, in assay [1], the “pIC50 (FRET)” value was 6.6/7.5/7.9.
Turning to `CC(C)(O)CC(=O)Nc1nc(CC2CCCCC2)c(-c2ccc(S(=O)(=O)NC(C)(C)C)c(C(F)(F)F)c2)s1` [Example 200, N-(5-(4-(N-(tert-Butyl)sulfamoyl)-3-(trifluoromethyl)phenyl)-4-(cyclohexylmethyl)thiazol-2-yl)-3-hydroxy-3-methylbutanamide], on RORγ, the “pIC50 (FF)” value is listed as 6.6/7.5/7.8 and the “pIC50 (REN)” value is 6.6/7.5/7.8. Further, the “pIC50 (FRET)” value in assay [1] was 6.6/7.5/7.8.
On to `CCS(=O)(=O)c1ccc(CC(=O)Nc2nc(CC3CCCCC3)c(-c3ccc(S(=O)(=O)NC(C)(C)C)c(C(F)(F)F)c3)s2)cc1` [Example 200/1], for which, on RORγ, the “pIC50 (FF)” value is 7.1/7.4/7.8 and the “pIC50 (REN)” value is reported as 7.1/7.4/7.8. The “pIC50 (FRET)” value in assay [1] is listed as 7.1/7.4/7.8.
As to `CC(C)(C)NS(=O)(=O)c1ccc(-c2sc(NS(C)(=O)=O)nc2CC2CCCCC2)cc1C(F)(F)F` [Example 201, N-(tert-Butyl)-4-(4-(cyclohexylmethyl)-2-(methylsulfonamido)thiazol-5-yl)-2-(trifluoromethyl)benzenesulfonamide], on RORγ, the “pIC50 (FF)” value is on record as 6.0/6.5/6.6 and the “pIC50 (REN)” value is recorded as 6.0/6.5/6.6. For the same compound, the “pIC50 (FRET)” value in assay [1] is 6.0/6.5/6.6.
Consider `CC(C)(C)c1cc(-c2nc(C(N)=O)ncc2CC2CCCCC2)cc(C(C)(C)C)c1` [Example 206, 5-(Cyclohexylmethyl)-4-(3,5-di-tert-butylphenyl)pyrimidine-2-carboxamide], for which, at RORγ, the “pIC50 (FF)” value is recorded as 5.9/6.3/6.2 and the “pIC50 (REN)” value was 5.9/6.3/6.2. In addition, the “pIC50 (FRET)” value in assay [1] is given as 5.9/6.3/6.2.
For the compound `CC(C)(C)c1cc(-c2nc(C(=O)NC3COC3)ncc2CC2CCCCC2)cc(C(C)(C)C)c1` [Example 207, 5-(Cyclohexylmethyl)-4-(3,5-di-tert-butylphenyl)-N-(oxetan-3-yl)pyrimidine-2-carboxamide], at RORγ, the “pIC50 (FF)” value is given as 5.4/6.4/6.5 and the “pIC50 (REN)” value is given as 5.4/6.4/6.5. Moreover, the “pIC50 (FRET)” value in assay [1] was 5.4/6.4/6.5.
With `CC(C)(O)CNC(=O)c1ncc(CC2CCCCC2)c(-c2cc(C(C)(C)C)cc(C(C)(C)C)c2)n1` [Example 207/1], at RORγ, the “pIC50 (FF)” value is 6.0/6.2/6.1 and the “pIC50 (REN)” value was 6.0/6.2/6.1. Also, the “pIC50 (FRET)” value in assay [1] is given as 6.0/6.2/6.1.

The values above are taken from patent US10301272B2, “Carboxamide or sulfonamide substituted thiazoles and related derivatives as modulators for the orphan nuclear receptor ROR[γ]” (Phenex Pharmaceuticals AG, priority 2012, dated 2019).
